In one data set the test system is AsPC-1. The data set is described as follows: Cell proliferation assay (Cell-titer Glo), AsPC-1. The class given is cell-based. Particulars: Homo sapiens, ASPC1, AsPC-1, KRAS G12D, 96 h. The method, then: (§1) Cells with different mutations were seeded in low-attachment transparent 96-well plates at the seeding densities shown in Table 1, and incubated overnight in a cell culture incubator. After the cells adhered, the test compounds were added to the 96-well plates at final concentrations of 20000 nM, 5000 nM, 1250 nM, 312.5 nM, 78.13 nM, 19.53 nM, 4.88 nM, 1.22 nM, 0.31 nM, 0 nM (the final concentration of DMSO was 0.25% in all wells). After culturing at 37°C for 96 h, 50 µL of Cell-titer Glo working solution was added to each well. The plates were shaken to mix and then incubated at room temperature for 10 min. Luminescence values were read on a multimode microplate reader, and the luminescence data were converted into percentage inhibition. The percentage of cell proliferation inhibition was calculated according to the following formula: Percentage inhibition = (1−(TestValue−Blank)/(MaxValue−Blank)) × 100% [formula]
(§2) ("Max value" is from the 0.25% DMSO control wells, "Blank" is from the blank medium control wells, and "Test Value" is from the compound-treated wells).
(§3) Curve fitting was performed using GraphPad Prism software to obtain IC50 (nM) values.

For another data set, the system named is AGS. The data set is described as follows: Cell proliferation assay (Cell-titer Glo), AGS. The class given is cell-based. Particulars: Homo sapiens, KRAS G12D, 96 h. Here is the method: as §1, §2, §3
A further data set relates to Panc0403. In words: Cell proliferation assay (Cell-titer Glo), Panc0403. To be noted: Homo sapiens, Panc 04.03, Panc0403, KRAS G12D, 96 h. The format is cell-based. The method, then:
as §1, §2, §3

The test system of a further data set is SW620. In words: Cell proliferation assay (Cell-titer Glo), SW620. The class given is cell-based. To be noted: Homo sapiens, SW-620, SW620, KRAS G12V, 96 h. Here is the method:
as §1, §2, §3

The test system of the next data set is MKN-1. In words: Cell proliferation assay (Cell-titer Glo), MKN-1. The class given is cell-based. To be noted: Homo sapiens, MKN-1, KRAS WT-Amp, 96 h. Here is the method: as §1, §2, §3
Data set [1] can be described thus: PK study in SD rats, intravenous single administration. The class given is in vivo. Particulars: male, 3 mg/kg. Here is the method: Compound 115 was mixed with the vehicle 10% DMSO/5% Solutol/85% physiological saline, vortexed and sonicated to prepare a 1.5 mg/mL clear solution. Male SD rats aged 6 to 7 weeks were selected, fasted for 8 h, and then administered Compound 115 intravenously. Whole blood was collected at certain time points. Drug concentrations were analyzed by LC-MS/MS method, and pharmacokinetic parameters were calculated using Phoenix WinNonlin software (Pharsight, USA). Table 4. Rat PK data for intravenous single administration of Compound 115

Data set [2] can be described thus: PK study in ICR mice, intravenous single administration. The class given is in vivo. Particulars: female, 3 mg/kg. Here is the method:
Compound 115 was mixed with the vehicle 10% DMSO/5% Solutol/85% physiological saline, vortexed and sonicated to prepare a 0.6 mg/mL clear solution. Female ICR mice aged 6 to 7 weeks were selected, not fasted, and administered Compound 115 intravenously. Whole blood was collected at certain time points. Drug concentrations were analyzed by LC-MS/MS method, and pharmacokinetic parameters were calculated using Phoenix WinNonlin software (Pharsight, USA). Table 3. Mouse PK data for intravenous single administration of Compound 115

The test system of a further data set is HCT116. In words: Cell proliferation assay (Cell-titer Glo), HCT116. The format is cell-based. Particulars: Homo sapiens, HCT-116, HCT116, KRAS G13D, 96 h. The method, then:
as §1, §2, §3

A short description of data set [3]: PK study in Beagle dogs, intravenous single administration. The format is in vivo. Particulars: one female and one male, 3 mg/kg. Here is the method: Compound 115 was mixed with the vehicle 10% DMSO/5% Solutol/85% physiological saline, vortexed and sonicated to prepare a 1.5 mg/mL clear intravenous injection solution. Beagle dogs weighing approximately 10 kg (half male, half female) were selected, not fasted, and administered Compound 115 intravenously. Whole blood samples were collected intravenously at 5 min, 15 min, 30 min, 1 h, 2 h, 4 h, 6 h, 8 h, 10 h, 24 h, 48 h, and 72 h. Drug concentrations were analyzed by LC-MS/MS method, and pharmacokinetic parameters were calculated using Phoenix WinNonlin software (Pharsight, USA). Table 5. Beagle Dog PK data for intravenous single administration of Compound 115

For orientation: IC50 means the midpoint of a concentration-inhibition curve. A higher IC50 goes with weaker potency. What is called AUC(0-t) is exposure summed from dosing to a finite time, without extrapolation to infinity. High values mean more exposure, low ones less exposure. The term half-life denotes the time in which the quantity being followed falls by half. A higher half-life goes with slow loss.

Take `CCc1c(F)ccc2cc(O)cc(-c3nc4c5c(nc(OCC6(CN7CCC(Oc8cnc(-c9cn([C@H](C(=O)N%10C[C@H](O)C[C@H]%10C(=O)N[C@@H](C)c%10ccc(-c%11scnc%11C)cc%10)C(C)C)nn9)cn8)CC7)CC6)nc5c3F)N3CCCOC[C@H]3CO4)c12` [Compound 112, (2S,4R)-1-((S)-2-(4-(5-((1-((1-((((S)-2-(8-ethyl-7-fluoro-3-hydroxynaphthalen-1-yl)-1-fluoro-5a, 6,9,10-tetrahydro-5H,8H-4,7-dioxa-3,10a,11,13-tetraazanaphtho[1,8-ab]heptalen-12-yl)oxy)methyl)cyclopropyl)methyl)piperidin-4-yl)oxy)pyrazin-2-yl)-1H-1,2,3-triazol-1-yl)-3-methylbutanoyl)-4-hydroxy-N-((S)-1-(4-(4-methylthiazol-5-yl)phenyl)ethyl)pyrrolidine-2-carboxamide]: the IC50 in the data set on AsPC-1 is 2.6 nM; in the data set with AGS it was 4.4 nM; in the data set with Panc0403, 6.5 nM; in the data set with SW620, 20 nM; with MKN-1 it was 0.4 nM.
As to `CCc1c(F)ccc2cc(O)cc(-c3ncc4c(N5CCOC[C@@](C)(O)C5)nc(OCC5(CN6CCC7(CCN(Cc8cnc(-c9cn([C@H](C(=O)N%10C[C@H](O)C[C@H]%10C(=O)N[C@@H](C)c%10ccc(-c%11scnc%11C)cc%10)C(C)C)nn9)cn8)CC7)CC6)CC5)nc4c3F)c12` [Compound 115, (2S,4R)-1-((S)-2-(4-(5-((9-((1-(((7-(8-ethyl-7-fluoro-3-hydroxynaphthalen-1-yl)-8-fluoro-4-((S)-6-hydroxy-6-methyl-1,4-oxazepan-4-yl)pyrido[4,3-d]pyrimidin-2-yl)oxy)methyl)cyclopropyl)methyl)-3,9-diazaspiro[5.5]undecan-3-yl)methyl)pyrazin-2-yl)-1H-1,2,3-triazol-1-yl)-3-methylbutanoyl)-4-hydroxy-N-((S)-1-(4-(4-methylthiazol-5-yl)phenyl)ethyl)pyrrolidine-2-carboxamide], the IC50 in the data set with AsPC-1 was determined as 1.9 nM; with AGS, 0.9 nM; with Panc0403 it was 5.9 nM; in the data set on HCT116 it was 20 nM; in the data set on SW620, 8 nM; in the data set on MKN-1, 0.7 nM. Further, the values for the Cl_obs in [1], in data set [2] and in data set [3] were 5.44 mL/min/kg, 13.7 mL/min/kg and 1.96 mL/min/kg, respectively. Besides, the Vss_obs was found to be 5.06 L/kg in [1], 9.23 L/kg in data set [2] and 1.82 L/kg in data set [3]. Further, the AUC(0-t) in data set [1] (rat, in vivo) was determined as 9170 ng·h/mL; in [2] (mouse, in vivo), 3710 ng·h/mL; in data set [3] (dog, in vivo), 20700 ng·h/mL. The C0 stood at 17300 ng/mL in data set [1] (rat, in vivo); 7510 ng/mL in data set [2] (mouse, in vivo); 22700 ng/mL in data set [3] (dog, in vivo). The half-life in data set [1] (rat, in vivo) is 12.7 h; in data set [2] (mouse, in vivo) it was 13.5 h; in [3] (dog, in vivo), 23.3 h.

These data come from patent EP4813978A1, “COMPOUND TARGETING UBIQUITIN KRAS PROTEIN DEGRADATION AGENT, AND USE THEREOF” (Betta Pharmaceuticals Co., Ltd, priority 2023, dated 2025).
